Where two headings read alike, the source gives them in different places.
How the values were obtained:
B. anthracis strain 34F2 [1] = type: cell-based
B. anthracis strain 34F2 [2] = type: cell-based; remark: listed apart in the source
[3] = system: B. anthracis strain RBAF140; type: cell-based
[4] = system: pag-lacZ (pagA protective antigen gene transcription); type: cell-based, B. anthracis
[5] = system: B. anthracis protective antigen (PA); type: cell-based
[6] = system: AI-2-mediated quorum-sensing; details: cited from earlier work
[7] = system: AI-2-mediated quorum-sensing; details: cited from earlier work; remark: listed apart in the source
B. subtilis = details: cited from earlier work
[8] = system: AI-1 and AI-2-mediated quorum-sensing pathways; details: cited from earlier work

CCCCC1=CC(=C(Br)Br)OC1=O [furanone 2, 3-butyl-5-(dibromomethylene)-2-(5H)-furanone]
Inhibitory effect compared among furanones 1, 2 and 4 (B. anthracis strain 34F2 [1]): least

CCCCC1=C(Br)/C(=C/Br)OC1=O [furanone 1, (5Z)-4-bromo-5-(bromomethylene)-3-butyl-2(5H)-furanone]
B. anthracis growth (OD600) (B. anthracis strain 34F2 [1]): dramatically inhibited | Bacterial growth (OD600) (B. anthracis strain 34F2 [1]): completely inhibited | Bacterial growth (OD600) with increasing concentration (B. anthracis strain 34F2 [1]): increasingly retarded | Bacterial growth (OD600) with increasing concentration, log phase cells (B. anthracis strain 34F2 [2]): increasingly retarded | Growth of RBAF140 (OD600) [3]: significant inhibition of growth | Expression of pag-lacZ (β-gal activity) [4]: significantly reduced | PA expression (Western blot) [5]: significant reduction | AI-2-mediated quorum-sensing [6]: inhibit | AI-2-mediated quorum-sensing [7]: inhibit | Biofilm formation (B. subtilis): inhibit | Swarming (B. subtilis): inhibit | AI-1 and AI-2-mediated quorum-sensing pathways [8]: directly inhibit

O=C1C=C(Br)/C(=C/Br)O1 [furanone 4, 4-bromo-5-(bromomethylene)-2(5H)-furanone]
Inhibitory effect compared among furanones 1, 2 and 4 (B. anthracis strain 34F2 [1]): most potent inhibitory effect

— patent US7955596B2 (priority 2003, dated 2011)
